Assay results as given in patent publication US10668032B2 (SyneuRx International (Taiwan) Corp., priority 2016, dated 2020).

Assays:
[1] = system: primary cortical neuronal culture; assay: Detection of cellular reactive oxygen species (CellROX) after 3-NP in primary cortical culture; format: cell-based, rat
Description: Reactive oxygen species (ROS) are detected on primary cortical neuronal culture by CellROX Oxidative Reagents (catalog number 10444, Life Technologies Corp. USA). […] The cells were then exposed to 2.5 mM 3-NP for 24 hours. Subsequently, […] CellROX Reagent was added, and then incubated for […]. CellROX Green Reagent is a DNA dye, and upon oxidation, it binds to DNA; thus, its signal is localized in the nucleus and mitochondria. ROS were quantified by fluorescence intensity. The samples were observed under a laser scanning confocal microscope Zeiss LSM700 (Zeiss, Germany) equipped with filter sets to detect fluorescent signal.

cortical neurons = assay: Mitochondrial respiration, XF Cell Mito Stress Test (OCR); format: cell-based, rat; conditions: 3 mM, pre-treatment 24 h
Description: The preparation of primary cortical culture was as described before, but the cells were seeded on XF 96 well cell culture microplates. On the day of assay, culture media were changed to XF Assay medium (Seahorse Biosciences, USA). Prior to assay, plates were transferred into an incubator with CO2 supplementation at 37° C. and kept for 1 hour. The overall OCR was calculated.
The XF Cell Mito Stress Test modulates respiration that target components of the electron transport chain (ETC) in the mitochondria to reveal key parameters of metabolic function. The modulators (oligomycin, FCCP, and a mix of rotenone and antimycin A) are serially injected to measure ATP production, maximal respiration, and non-mitochondrial respiration. Proton leak and spare respiratory capacity are then calculated using these parameters.

C57BL/6J mice = assay: Von Frey test of acute mechanical pain; format: in vivo, mouse; conditions: 256 mg/kg i.p.
Description: Animals are housed and kept in the same condition as previous described.
The Von Frey test is used to assess mechanical nociception. A mouse is placed in a small box (10 cm×6 cm×10.5 cm) on a confined area of wire mesh (65 cm×21 cm×31 cm) (2450 Electronic Von Frey Anesthesiometer, IITC, U.S.A.). The mouse was kept in the box for 60 min to acclimatize. When the tested mouse calms down, a special tip with electrode inside was used to poke its hind paw.

[2] = Plasma pharmacokinetics of benzoic acid after oral gavage; format: in vivo, Sprague-Dawley rats; conditions: rat, single oral gavage
Description: The plasma concentration of benzoic acid was determined by LC/MS/MS. The chromatographic separation was carried out on a ODS 5 um column (4.6×150 mm, Biosil). The mobile phase consisted of a mixture of 1% mobile phase A and 99% mobile phase B. […] The injection volume was 50 μL and the column temperature was 23° C. All solvents were HPLC grade quality. Plots of plasma concentration of benzoic acid versus time are constructed. The fundamental pharmacokinetic parameters were obtained from non-compartmental analysis (NCA) of the plasma data using WinNonlin.

primary cortical cells = assay: Neurogenesis (BrdU/NeuN co-localization) in primary cortical culture after Aβ25-35; format: cell-based, rat; conditions: 0.5 mM, 4 days; compared with the other two drugs
Description: Primary cortical cultures were prepared from embryonic day 18 (E18) fetal Spragu-Dawley (SD) rat brains. Culture medium was removed from cells and replace with BrdU labeling solution and incubated at 37° C. for 4 days aligned with treatments after Aβ25-35 for 2 days. Cells were fixed in 4% PFA and washed in PBS, blocked with 2% bovine serum albumin (BSA) and 0.03% Triton X-100 in PBS, acid-washed with 2N HCl and phosphate/citric acid buffer (pH 7.4). Next, anti-BrdU primary antibody (1:250, Thermo Scientific) or anti-NeuN primary antibody (1:300, Abcam) were added. The goat anti-rat IgGAlexa Fluor-conjugated secondary antibodies (1:200; Thermo Scientific); anti-mouse IgG Alexa Fluor-conjugated secondary antibodies (1:500; Thermo Scientific) were applied to recognize the primary antibodies of the BrdU and NeuN respectively.
The coverslips were observed under a digital imaging fluorescence microscope (Olympus BX61; Japan) equipped with filter sets to detect the corresponding fluorescence signals.
The second part of mechanism study was focused on neurogenesis. The impairment of neurogenesis in the adult hippocampus has been an important evidence of the pathogenesis of Alzheimer's disease. […]

[3] = system: B6CBA-Tg(HDexon1)62Gpb/3J mice; assay: Survival of HDexon1 (R6/2) transgenic Huntington's disease mice; format: in vivo, mouse; conditions: 256 mg/kg/day i.p. from 11 weeks after birth, vs vehicle-treated HDexon1 transgenic mice
Description: Animals used in the examples of the present disclosure were housed in an animal room under temperature control (24-25° C.) and 12:12 light-dark cycle. Standard laboratory chow and tap water were available ad libitum. The experiments procedures were approved by the Institutional Animal Care and Use Committee and were performed in compliance with national animal welfare regulations. Transgenic mice B6CBA-Tg(HDexon1)62Gpb/3J were purchased from the Jackson Laboratory (USA).
Drug regimen was initiated 11 weeks after birth, and continued until the end of study. […] The mice of vehicle group received injections of the same volume of saline.
Date and cause of death were recorded for each mouse. Animals were closely monitored and euthanized if moribund, which was defined as the inability of mice to right themselves 30 seconds after being placed on a side, in accordance with the criteria for severe morbidity. The moribund mice were recorded as “dead”, and euthanized using carbon dioxide.

primary cortical neurons = assay: Aβ25-35 cytotoxicity in primary cortical culture, cell survival (MTT)
Description: MTT assay was used to assess the extents of cell survival. MTT (3-(4,5-dimethylthiazol-2-yl)-2,5-diphenyltetrazolium bromide) was added to the culture, incubated at 37° C. for 4 hours. Insoluble purple formazan products were yield by living cells. The colorimetric method was used to quantify the surviving cells, and “cell survival (%)” was defined as the mean numbers of surviving cells.
Primary cortical cultures were prepared as previous described. Aβ25-35 (Cat. No. A4559, Sigma) was dissolved in autoclaved ddH2O to make a stock solution of 2 mM, dispensed into aliquots, and immediately stored at −80° C. until use.

[4] = NaBen 287.9 mg/kg + Li2CO3 74.2 mg/kg or LiBen 255.3 mg/kg

O=C([O-])c1ccccc1.[Li+] [lithium benzoate]
ROS reduction effect compared with sodium benzoate and lithium chloride ([1]; 0.5 mM each): much more significant
ROS production induced by 3-NP ([1]; 0.5 mM, incubated 24 hours before 3-NP): back to the basal level
ROS production induced by 3-NP ([1]; lithium benzoate 0.5, 1 or 3 mM 24 h, then 2.5 mM 3-NP 24 h): significantly reduced
basal respiration (basal OCR) (cortical neurons): reduced more basal OCR than the other groups
spare respiratory capacity (cortical neurons): increasing of spare respiratory capacity
ATP production (cortical neurons; versus NaBen or LiCl): better reduction levels
proton leak (cortical neurons; versus NaBen or LiCl): better reduction levels
acute mechanically evoked pain (paw withdrawal threshold) (C57BL/6J mice; vs PBS): alleviated
time course of the antinociceptive effect (C57BL/6J mice; tested at 30, 60, 90, 120 min): obvious after 30 min of administration and lasted till 60 min
AUC Extr of benzoic acid [2, 4]: 2.63%
AUCInf of benzoic acid [2, 4]: 62,874 hr * ng/mL
AUClast of benzoic acid [2, 4]: 62,059 hr * ng/mL
Cmax of benzoic acid [2, 4]: 109,321 ng/mL
MRT of benzoic acid [2, 4]: 45 min
Tmax of benzoic acid ([2]; NaBen 287.9 mg/kg + Li2CO3 74.2 mg/kg or LiBen 255.3 mg/kg (same molarity)): 11.4 min
neurogenesis (BrdU(+)/NeuN(+) cells) after Aβ25-35 exposure (primary cortical cells): unsurpassed performance of neurogenesis
proportion of mice surviving over time [3]: improved
cortical cell survival after Aβ25-35 (primary cortical neurons; 10 μM Aβ 25-35 for 2 days, then drug 1 mM for 4 days, vs no drug treatment): statistical improvement
reduction of cell death from Aβ25-35 toxicity compared with sodium benzoate and lithium chloride (primary cortical neurons; 1 mM each, 4 days): much more than the other two drugs
